Test results reported in paper PMC8311653, “Design, Synthesis, In Vitro and In Vivo Characterization of Selective NKCC1 Inhibitors for the Treatment of Core Symptoms in Down Syndrome” (Journal of Medicinal Chemistry, 2021).

How the values were obtained:
Type in all cases: in vivo, mouse
[1] = General health and body weight during chronic treatment; conditions: 3 weeks of daily treatment, ip 0.6 mg kg-1; WT and Ts65Dn mice
Experimental: (§1) A veterinarian was employed to maintain the health and comfort of the animals. Mice were housed in filtered cages in a temperature-controlled room with a 12:12 h dark/light cycle and with ad libitum access to water and food. All efforts were made to minimize animal suffering and use the lowest possible number of animals required to produce statistical relevant results, according to the “3Rs concept”. In this study, we used Ts65Dn mice maintained in their original genetic background[57] by crossing (more than 40 times) Ts65Dn female to C57BL/6JEi × C3SnHeSnJ (B6EiC3) F1 males (Jackson Laboratories). Ts65Dn mice were genotyped by PCR as previously described.[58] Only males were used for behavioral experiments. Ts65Dn and controls were randomly assigned to vehicle groups (2% DMSO in saline), bumetanide (Sigma, 0.6 mg kg^–1 body weight), or 40 (0.6 mg kg^–1 body weight) and treated daily for ∼21 days by intraperitoneal injection (i.p.). On the day of behavioral testing, injection was performed 1 h before the task began.

Ts65Dn mice [2] = assay: Novel object recognition (NOR) test; conditions: ip 0.6 mg kg-1 daily, chronic (7-21 days)
Experimental: as §1
Ts65Dn male mice (8–16 weeks old) were tested after 1 week of treatment with vehicle or 40 (0.6 mg kg^–1 i.p.). The battery of tests was run over a total period of ∼14 days (four behavioral tests with the following order Open Field, NOR, T-maze, and CFC). […] The tasks were video-recorded and then analyzed manually by a blind operator.

Ts65Dn mice [3] = assay: Open field test (locomotor activity); conditions: ip 0.6 mg kg-1 daily
Experimental: All animal procedures were approved by IIT licensing in compliance with the Italian Ministry of Health (D.Lgs 26/2014) and EU guidelines (Directive 2010/63/EU). A veterinarian was employed to maintain the health and comfort of the animals. Mice were housed in filtered cages in a temperature-controlled room with a 12:12 h dark/light cycle and with ad libitum access to water and food. All efforts were made to minimize animal suffering and use the lowest possible number of animals required to produce statistical relevant results, according to the “3Rs concept”. In this study, we used Ts65Dn mice maintained in their original genetic background[57] by crossing (more than 40 times) Ts65Dn female to C57BL/6JEi × C3SnHeSnJ (B6EiC3) F1 males (Jackson Laboratories). Ts65Dn mice were genotyped by PCR as previously described.[58] Only males were used for behavioral experiments. […]
Ts65Dn male mice (8–16 weeks old) were tested after 1 week of treatment with vehicle or 40 (0.6 mg kg^–1 i.p.). […] The tasks were video-recorded and then analyzed manually by a blind operator. […] The alternation score was calculated as the percentage of correct choices (i.e., left–right or right–left) over the total number of the 10 possible alternations. […]

CN(C)S(=O)(=O)c1cc(C(=O)O)c(O)cc1NCCCCCCCC(F)(F)F [Compound 40, 5-(N,N-Dimethylsulfamoyl)-2-hydroxy-4-((8,8,8-trifluorooctyl)amino)benzoic Acid]
animal body weight [1]: did not affect the animal body weight measures
general health (daily hands-on examination) [1]: did not affect the general health
novel-discrimination ability in the NOR task (discrimination index) (Ts65Dn mice [2]): completely rescued
hyperactivity in open field (distance traveled and average walking speed) (Ts65Dn mice [3]): rescued also the hyperactivity
